According to patent US20060240032A1, “Immunomodulating compositions and methods for use in the treatment of human autoimmune diseases” (priority 2005, published 2006):
Read-outs that look alike come from different tables or passages of the source. No end group written: not given here.

Key:
[1] = system: EAE in Lewis rats; assay: EAE in Lewis rats injected with gpMBP in CFA, treatment with saline solution of octamer or monomer; format: in vivo; settings: 4 and 8 days after gpMBP-CFA
Description: Experimental autoimmune encephalomyelitis (EAE) in the rat is an acute paralytic disease from which most animals spontaneously recover. The disease can be induced in susceptible inbred Lewis and DA rats with myelin basic protein (MBP), or encephalitogenic MBP peptides administered in complete Freund's adjuvant (CFA). The disease can be adoptively transferred to syngeneic recipients with primed T cells that have been reactivated in vitro with antigen. Studies of EAE in susceptible rats have provided many important insights into the interactions of T cells and accessory cells that culminate in the induction of the autoimmune response.
The influence of a saline solution of the 72-85gpMBP octamer on the course of EAE in Lewis rats previously injected with gpMBP emulsified in CFA was investigated. We injected 10 or 50 micrograms of the 72-85 gpMBP octamer into Lewis rats 4 and 8 days after they had been injected with gpMBP-CFA. […] Rats that received an equivalent amount of the 72-85 amino acid gpMBP peptide monomer at day 4 and day 8 developed clinical signs of disease.

[2] = system: EAE in SJL mice; assay: EAE in SJL mice immunized with PLP(139-151) in CFA (139CFA), treatment after immunization before disease; format: in vivo; settings: for development of clinical signs of EAE: intraperitoneal or subcutaneous, days 2, 7 and 10 after 139CFA
Description: For all of these studies, MAP octamers of the 139-151aa peptide of proteolipid protein (PLP) were used and prepared by solid phase peptide synthesis as described above in the Materials and Methods. Each PLP(139-151) MAP octamer is comprised of eight polypeptide chains of the 139-151 aa of PLP each covalently linked to a central core as shown in FIG. 1. The general structure of the MAP (FIG. 1) is therefore dissimilar to the linear array typical of the peptide multimers used by others in the prior art (Falk, Rotzschke et al. 2000; Falk, Rotzschke et al. 2000; Stienekemeier, Falk et al. 2001). MAPs are also referred to as dendrimers to emphasize the branched nature of their structure (Bracci, Falciani et al. 2003). Initial studies with the 139-151 PLP MAP octamers (139MAP) used SJL mice that were first immunized with the encephalitogenic 139-151 PLP peptide in CFA (139CFA) and subsequently injected with saline solutions of 139MAP. […] For this initial study, mice were treated by intraperitoneal or subcutaneous injection with 139MAP on days 2, 7 and 10 following 139CFA injection.

[3] = system: adoptively transferred EAE in SJL mice; assay: EAE induced by adoptive transfer of PLP(139-151) specific T-cell lines into naive SJL mice; format: in vivo; settings: for additional (relapsing) episodes of EAE: adoptive transfer recipients, treatment initiated after clinical signs of EAE
Description: The T-cell lines employed for these studies were derived from SJL mice previously immunized with 139CFA. The T-cell lines are used for adoptive transfer studies following the third round of antigen-stimulation in vitro. The source of antigen presenting cells is irradiated syngeneic thymus cells. This is a procedure that is routinely used by other investigators and is known by those of skill in the art (Bourdette, Vandenbark et al. 1989).
We treated some of the cell recipients with 50 micrograms 139MAP on three consecutive days with treatment initiated after the development of clinical signs of EAE. […] This is very clear in vivo data showing the 139MAP-associated inhibition of rEAE in the SJL mouse model. The 139MAP reagent inhibits the progression of clinically apparent disease as well as the onset and the continued development of EAE in both the actively-induced as well as the adoptively-transferred forms of EAE.

[4] = system: antigen specific lymphocytes; assay: Additional studies on lymphoid traffic after 139MAP treatment; format: in vivo
[5] = system: PLP(178-191) induced rEAE in SJL mice; assay: EAE in SJL mice immunized with PLP(178-191) in CFA (antigen specificity); format: in vivo; settings: for disease development: SJL mice immunized with PLP(178-191) in CFA, treated days 2, 7 and 10 (FIG. 5)
Description: The relapsing disease that develops in SJL mice is thought to occur due to the immune response that develops against additional encephalitogenic determinants found in PLP and MBP (Cross, Tuohy et al. 1993). […] Immunization of SJL mice with the PLP(178-191) peptide in CFA caused the development of clinically apparent disease 12-14 days following immunization. […] FIG. 6 represents a second experiment (4 animals per group) in which mice treated with 139MAP after they developed initial signs of EAE due to immunization with the PLP(178-191) peptide.

[6] = system: PLP(139-151) peptide specific T-cell lines; assay: Proliferation of encephalitogenic T-cell line in response to antigen in vitro; format: cell-based; settings: T-cell line from 139CFA-immunized SJL mice
[7] = system: relapsing EAE (rEAE) in SJL mice; settings: for relapses (rEAE): 100 microgram doses on two consecutive days after clinical disease evident
Description: Animals are graded as grade 1 when the first sign of disease is evident which is a flaccid tail.
The 139MAP-treated animals were given 100 microgram doses of 139MAP on two consecutive days. […] All reagents were administered on two consecutive days after clinical disease was evident.

[8] = system: diabetes in NOD mice; settings: cited from earlier work

72-85 amino acid gpMBP peptide monomer: monomer of the 72-85 amino acid peptide of guinea pig myelin basic protein (LPQKSQRSQDENPV; UniProt P25188 72-85, looked up, fragment) [reference compound]
clinical signs of EAE ([1]; 10 micrograms): No diminution of the signs of clinical disease
clinical signs of EAE ([1]; 50 micrograms): modest diminution of the clinical signs of EAE

72-85 gpMBP octamer: chemically synthesized octamers of the 72-85 amino acid peptide of guinea pig myelin basic protein (SEQ ID NO:7) (LPQKSQRSQDENPV; also: octamer on lysine-branched core)
development of EAE disease ([2]; SJL mice immunized with 139CFA, control octamer, dose not stated (FIG. 3)): had no effect of the development of EAE disease
additional (relapsing) episodes of EAE [3]: developed a relapsing episode of clinically severe EAE
clinical signs of EAE ([1]; 10 micrograms): developed less severe disease compared to the control group
clinical signs of EAE ([1]; 50 micrograms): did not develop any signs of clinical disease

139MAP: chemically synthesized octamer of PLP 139-151 peptide (HSLGKWLGHPDKF, SEQ ID NO:8), each linked through KKKKKGG spacer to a lysine-branched core (also: octamer, each linked via KKKKKGG spacer to lysine-branched core (MAP))
development of clinical signs of EAE ([2]; SJL mice, 20 micrograms): Virtually all signs of disease were prevented
development of clinical signs of EAE ([2]; SJL mice, 100 micrograms): Virtually all signs of disease were prevented
diminution of EAE ([2]; SJL mice, three injections of 5 micrograms after 139CFA (FIG. 3)): considerable diminution of EAE
lymphoid traffic to the autoimmune target organ [4]: alters lymphoid traffic to the autoimmune target organ
continued development of the first episode of disease ([3]; 50 micrograms on three consecutive days, initiated after clinical signs of EAE): inhibited the continued development of the first episode of disease
development of adoptively transferred EAE and subsequent relapses ([3]; administered prior to onset of disease or at first indication of disease (tail flaccidity), data not shown): completely inhibited
additional (relapsing) episodes of EAE [3]: no or very modest signs of additional episodes of EAE
additional (relapsing) episodes of EAE ([3]; listed as MAP139 octamer): inhibits the development of rEAE
disease development [5]: no significant inhibition of disease development
disease development ([5]; listed as MAP139 octamer): does not inhibit the development of PLP(178-191) induced rEAE
development of relapses ([5]; SJL mice immunized with PLP(178-191), treated after initial signs of EAE): inhibits the development of relapses
T-cell line proliferation in response to antigen [6]: proliferated in response
relapses (rEAE) [7]: inhibited the relapse component of this disease
subsequent course of disease ([7]; 100 microgram doses on two consecutive days after clinical disease evident (grades 1-3)): profound and immediate influence on the subsequent course of disease
relapses (rEAE) ([7]; listed as MAP139 octamer): effectively inhibits rEAE

B(9-23): peptide of residues 9-23 of the insulin B chain (SEQ ID NO:2) (SHLVEALYLVCGERG)
anaphylaxis ([8]; peptide therapy): development of anaphylaxis
onset and incidence of diabetes ([8]; subcutaneous or intranasal administration): marked delay in the onset and a decrease in the incidence of diabetes
